{
  "source": "PubChem BioAssay AID1963435",
  "about": "(Molecular Pharmacology Branch, DTP, NCI, 2024)",
  "test_system": "PANC-1 complex spheroid growth, percent test/control",
  "assay": "Anticancer human tumor PANC-1 cell line growth inhibition [Asc];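 note: spheroids exposed to agents for 7 days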;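 for viability, T/C: percent viability relative to DMSO vehicle wells taken as 100%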",
  "conditions": "for IC50: curve of first compound; for viability, T/C: stronger effect = lower value",
  "outline": "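Tumor cells were grown as multicellular spheroids with stromal HUVEC and mesenchymal stem cells and treated singly or in combination. Concentrations fell in half-log steps from the clinical Cmax, or from 10 microM where none was known.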",
  "data": [
    {"smiles": "C#Cc1c(F)ccc2cc(O)cc(-c3ncc4c(N5CC6CCC(C5)N6)nc(OCC56CCCN5CC(F)C6)nc4c3F)c12", "note": "(configuration not stated) + CCN1C(C(=O)NC23CCC(C(=O)O)(CC2)CC3)C(c2cccc(Cl)c2F)C2(C(=O)Nc3cc(Cl)ccc32)C12CCCCC2", "values": [
      {"measurement": "IC50", "setting": "second compound 0.00949 µM", "value": "> 10", "unit": "µM"},
      {"measurement": "IC50", "setting": "second compound 0.03 µM", "value": "> 10", "unit": "µM"},
      {"measurement": "IC50", "setting": "second compound 0.0949 µM", "value": "> 10", "unit": "µM"},
      {"measurement": "IC50", "setting": "second compound 0.3 µM", "value": "> 10", "unit": "µM"},
      {"measurement": "IC50", "setting": "second compound 0.949 µM", "value": "> 10", "unit": "µM"},
      {"measurement": "IC50", "setting": "second compound 3 µM", "value": "> 10", "unit": "µM"},
      {"measurement": "viability, T/C", "setting": "second compound 0.00949 µM, first compound 0.0316 µM", "value": 99.1, "unit": "%"},
      {"measurement": "viability, T/C", "setting": "second compound 0.00949 µM, first compound 0.1 µM", "value": 79.1, "unit": "%"},
      {"measurement": "viability, T/C", "setting": "second compound 0.00949 µM, first compound 0.316 µM", "value": 89.9, "unit": "%"},
      {"measurement": "viability, T/C", "setting": "second compound 0.00949 µM, first compound 1 µM", "value": 90.8, "unit": "%"},
      {"measurement": "viability, T/C", "setting": "second compound 0.00949 µM, first compound 3.16 µM", "value": 96.3, "unit": "%"},
      {"measurement": "viability, T/C", "setting": "second compound 0.00949 µM, first compound 10 µM", "value": 84, "unit": "%"},
      {"measurement": "viability, T/C", "setting": "second compound 0.03 µM, first compound 0.0316 µM", "value": 93.3, "unit": "%"},
      {"measurement": "viability, T/C", "setting": "second compound 0.03 µM, first compound 0.1 µM", "value": 90.2, "unit": "%"},
      {"measurement": "viability, T/C", "setting": "second compound 0.03 µM, first compound 0.316 µM", "value": 83.4, "unit": "%"},
      {"measurement": "viability, T/C", "setting": "second compound 0.03 µM, first compound 1 µM", "value": 92.6, "unit": "%"},
      {"measurement": "viability, T/C", "setting": "second compound 0.03 µM, first compound 3.16 µM", "value": 94.3, "unit": "%"},
      {"measurement": "viability, T/C", "setting": "second compound 0.03 µM, first compound 10 µM", "value": 82.3, "unit": "%"},
      {"measurement": "viability, T/C", "setting": "second compound 0.0949 µM, first compound 0.0316 µM", "value": 94, "unit": "%"},
      {"measurement": "viability, T/C", "setting": "second compound 0.0949 µM, first compound 0.1 µM", "value": 84.3, "unit": "%"},
      {"measurement": "viability, T/C", "setting": "second compound 0.0949 µM, first compound 0.316 µM", "value": 85, "unit": "%"},
      {"measurement": "viability, T/C", "setting": "second compound 0.0949 µM, first compound 1 µM", "value": 82.2, "unit": "%"},
      {"measurement": "viability, T/C", "setting": "second compound 0.0949 µM, first compound 3.16 µM", "value": 90.6, "unit": "%"},
      {"measurement": "viability, T/C", "setting": "second compound 0.0949 µM, first compound 10 µM", "value": 88.8, "unit": "%"},
      {"measurement": "viability, T/C", "setting": "second compound 0.3 µM, first compound 0.0316 µM", "value": 97, "unit": "%"},
      {"measurement": "viability, T/C", "setting": "second compound 0.3 µM, first compound 0.1 µM", "value": 84.3, "unit": "%"},
      {"measurement": "viability, T/C", "setting": "second compound 0.3 µM, first compound 0.316 µM", "value": 92.6, "unit": "%"},
      {"measurement": "viability, T/C", "setting": "second compound 0.3 µM, first compound 1 µM", "value": 93.2, "unit": "%"},
      {"measurement": "viability, T/C", "setting": "second compound 0.3 µM, first compound 3.16 µM", "value": 98.7, "unit": "%"},
      {"measurement": "viability, T/C", "setting": "second compound 0.3 µM, first compound 10 µM", "value": 90.9, "unit": "%"},
      {"measurement": "viability, T/C", "setting": "second compound 0.949 µM, first compound 0.0316 µM", "value": 98.4, "unit": "%"},
      {"measurement": "viability, T/C", "setting": "second compound 0.949 µM, first compound 0.1 µM", "value": 85.5, "unit": "%"},
      {"measurement": "viability, T/C", "setting": "second compound 0.949 µM, first compound 0.316 µM", "value": 92.8, "unit": "%"},
      {"measurement": "viability, T/C", "setting": "second compound 0.949 µM, first compound 1 µM", "value": 90.5, "unit": "%"},
      {"measurement": "viability, T/C", "setting": "second compound 0.949 µM, first compound 3.16 µM", "value": 93.7, "unit": "%"},
      {"measurement": "viability, T/C", "setting": "second compound 0.949 µM, first compound 10 µM", "value": 82.8, "unit": "%"},
      {"measurement": "viability, T/C", "setting": "second compound 3 µM, first compound 0.0316 µM", "value": 104, "unit": "%"},
      {"measurement": "viability, T/C", "setting": "second compound 3 µM, first compound 0.1 µM", "value": 91.7, "unit": "%"},
      {"measurement": "viability, T/C", "setting": "second compound 3 µM, first compound 0.316 µM", "value": 89.2, "unit": "%"},
      {"measurement": "viability, T/C", "setting": "second compound 3 µM, first compound 1 µM", "value": 87.7, "unit": "%"},
      {"measurement": "viability, T/C", "setting": "second compound 3 µM, first compound 3.16 µM", "value": 95.1, "unit": "%"},
      {"measurement": "viability, T/C", "setting": "second compound 3 µM, first compound 10 µM", "value": 82.6, "unit": "%"}
    ]}
  ]
}
